Results on 14 compounds are retold here after US20250270217A1, “IMIDAZ0[1,2-A]PYRIMIDINE-5(1 H)-ONES HAVING A COVALENT WARHEAD AT THE 3-POSITION AS WRN INHIBITORS” (Incyte Corporation, priority 2023, published 2025).

Assay [1] concerns the target T1, WRN (Homo sapiens, UniProt Q14191).
T1 construct: A His-tagged construct of WRN (AA S2-S1235) was produced and used for the ATPase assay; His; made in house; host or cells: Sf9 insect cells (baculovirus)
The assay can be described thus: WRN ATPase activity assay (ADP-Glo). The note with it: 1-hr pre-incubation with enzyme; 100 μM ATP, 25 nM forked dsDNA, 1 nM WRN; geometric mean of at least 2 replicates. Format: biochemical. As to the method: Compounds of the Examples were tested for WRN ATPase activity. WRN ATPase activity catalyzes ATP hydrolysis to produce ADP and phosphate. DNA encoding the target protein, 6×HIS-TEV-WRN-517-945, was produced, cloned and transfected as detailed in Example D. The amount of ADP produced was measured using ADP-Glo™ Kinase Assay kit from Promega Corporation in a Greiner white regular volume 384 wells assay plate (Greiner #781075). Data was normalized to a standard curve generated using various ADP concentrations and the corresponding luminescent signal intensities at each concentration. The assay conditions were optimized for enzyme concentration (WRN), substrate concentrations (ATP & dsDNA), and the linearity of the ATPase reaction, in the following assay buffer: 50 mM Tris-HCl, pH-7.5, 2 mM MgCl2, 50 mM NaCl, 1 mM EGTA, 0.01% P-20, 0.05% BSA, and 2 mM DTT prepared with nuclease free water.
A serial dilution (1:3 scheme) of the compounds were prepared in neat DMSO, with 100 nL of the compounds dispensed in the 384 wells assay plate. An 1-hr pre-incubation of the compounds with enzyme was included. A His-tagged construct of WRN (AA S2-S1235) was produced and used for the ATPase assay. Maximum inhibition control wells were set up with the addition of only assay buffer, and no inhibition control wells were set up with neat DMSO without test compounds. The reaction was initiated by addition of 5 μL substrate mix (200 μM ultrapure ATP, and 50 nM dsDNA prepared in assay buffer) and incubated at 25° C. for 35 min. A forked dsDNA oligomer substrate was prepared by annealing equal amounts of oligo GPat-1 ([BHQ2][…]) and oligo GPat-2 ([…][TAM]) and was used as dsDNA substrate for WRN ATPase assay. A typical ATPase reaction consists of 25 nM forked dsDNA, 100 μM ATP, and 1 nM WRN prepared in assay buffer. The WRN ATPase reaction was stopped by the addition of 5 μL of ADP-Glo Reagent from ADP-Glo™ Kinase Assay kit and incubated for 40 min to deplete the unreacted ATP. Afterwards, 5 μL of Kinase Detection Reagent from the ADP-Glo™ Kinase Assay kit was added and incubated for 1 hr for the development of luminescence signal.
Luminesce signals were measured on BMG PHERAstar FSX using luminescence protocol. Data analysis was carried out using Genedata software following % of control normalization. Fitting parameters include dose response IC50, Hill slope (n), maximum inhibition (S∞), and minimum inhibition (S0). The reported IC50 values for compounds in this invention are the geometric means of at least 2 independent replicates.

Assay [2] concerns the target T1, WRN. The assay can be described thus: WRN Helicase activity assay (fluorescence DNA unwinding). The note with it: 1-hr pre-incubation with enzyme; 100 μM ATP, 25 nM forked dsDNA, 1 nM WRN; geometric mean of at least 2 replicates. The class given is biochemical. As to the method: Compounds of the examples were tested for WRN helicase activity. DNA encoding the target protein, 6×HIS-TEV-WRN-517-945, was produced, cloned and transfected as detailed in Example D. To determine the inhibitory properties of the compounds, a 384 wells plate-based Helicase assay was set up to measure the extent of DNA unwinding (Helicase) activity of WRN. The WRN Helicase assay was designed to measure increase in fluorescence signal using a fluorescence based, donor-quencher paired forked dsDNA oligomer substrate (custom synthesis from Sigma-Aldrich) prepared by annealing equal amounts of oligo GPat-1 ([BHQ2][…]) and oligo GPat-2 ([…][TAM]). Continuous measurement of fluorescent signal was used to optimize the buffer conditions, concentration of enzyme (WRN), concentration of substrates (ATP & dsDNA), and the linearity of the Helicase reaction. All solutions were prepared in the following assay buffer: 50 mM Tris-HCl, pH-7.5, 2 mM MgCl2, 50 mM NaCl, 1 mM EGTA, 0.01% P-20, 0.05% BSA, and 2 mM DTT prepared with nuclease free water.
A serial dilution (1:3 scheme) of the compounds was prepared in neat DMSO and 100 nL of the compounds was dispensed in the Greiner black low volume (Greiner #784076) 384 wells assay plate. An 1-hr pre-incubation of the compounds with enzyme was included. A His-tagged construct of WRN (AA S2-S1235) was produced and used for the ATPase assay. Maximum inhibition control wells were set up with the addition of only assay buffer, and no inhibition control wells were set up with neat DMSO without test compounds. The reaction was initiated by addition of 5 μL substrate mix (200 μM ultrapure ATP, and 50 nM dsDNA prepared in assay buffer) and incubated at 25° C. for 35 min. A typical Helicase reaction consists of 25 nM forked dsDNA, 100 μM ATP, and 1 nM WRN prepared in assay buffer. The WRN Helicase reaction was quenched by the addition of 5 μL ‘STOP’ solution containing 100 mM EDTA (final EDTA concentration 33.33 mM) prepared in assay buffer. The plates were read on BMG PHERAstar FSX using 540/590 module to measure an increase of fluorescence. Data analysis was carried out using the Genedata software following % of control normalization. Fitting parameters include dose response IC50, Hill slope (n), maximum inhibition (S∞), and minimum inhibition (S0). The reported IC50 values for compounds in this invention are the geometric means of at least 2 independent replicates.

Counter-ions that a name gives are not always drawn.

T1 sequence (Q14191 2-1235): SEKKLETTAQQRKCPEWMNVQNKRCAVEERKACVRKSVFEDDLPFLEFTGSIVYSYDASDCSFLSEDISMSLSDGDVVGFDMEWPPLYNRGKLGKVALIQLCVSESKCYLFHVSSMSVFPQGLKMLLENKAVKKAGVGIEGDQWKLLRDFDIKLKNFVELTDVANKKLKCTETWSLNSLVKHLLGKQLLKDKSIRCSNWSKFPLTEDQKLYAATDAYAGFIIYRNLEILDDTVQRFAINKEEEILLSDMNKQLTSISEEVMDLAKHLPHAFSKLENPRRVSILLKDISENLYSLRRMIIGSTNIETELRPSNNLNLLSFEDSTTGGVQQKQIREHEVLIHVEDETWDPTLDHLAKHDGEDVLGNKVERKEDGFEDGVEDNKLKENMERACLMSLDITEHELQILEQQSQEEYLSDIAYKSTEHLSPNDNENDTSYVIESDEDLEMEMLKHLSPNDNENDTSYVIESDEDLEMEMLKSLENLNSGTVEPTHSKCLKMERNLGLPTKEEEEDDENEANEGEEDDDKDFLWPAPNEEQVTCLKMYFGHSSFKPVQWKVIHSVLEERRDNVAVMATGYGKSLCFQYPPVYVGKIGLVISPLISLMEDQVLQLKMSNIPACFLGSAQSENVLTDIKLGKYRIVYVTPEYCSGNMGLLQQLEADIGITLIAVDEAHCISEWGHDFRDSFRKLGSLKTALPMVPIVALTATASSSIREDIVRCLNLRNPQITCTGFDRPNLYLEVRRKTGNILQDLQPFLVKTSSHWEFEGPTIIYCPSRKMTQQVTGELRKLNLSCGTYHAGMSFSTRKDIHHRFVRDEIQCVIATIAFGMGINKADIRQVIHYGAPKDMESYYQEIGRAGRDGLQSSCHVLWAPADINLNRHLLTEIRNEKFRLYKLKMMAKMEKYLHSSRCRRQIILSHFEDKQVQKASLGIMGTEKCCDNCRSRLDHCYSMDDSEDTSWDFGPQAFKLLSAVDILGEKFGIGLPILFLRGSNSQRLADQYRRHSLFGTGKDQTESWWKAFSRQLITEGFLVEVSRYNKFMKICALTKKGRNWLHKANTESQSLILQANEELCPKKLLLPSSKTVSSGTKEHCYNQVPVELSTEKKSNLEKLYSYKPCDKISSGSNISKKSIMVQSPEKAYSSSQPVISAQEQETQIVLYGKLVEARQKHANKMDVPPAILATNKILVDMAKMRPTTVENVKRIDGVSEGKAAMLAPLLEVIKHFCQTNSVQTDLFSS

What is called IC50 is the point on the concentration scale where inhibition reaches its midpoint. Low values mean higher potency, high ones lower potency. For the compound `C=CC(=O)Nc1ccccc1-c1c(CC)nc2n(CC(=O)Nc3ccc(C(F)(F)F)cc3)c(-c3ccccc3)cn2c1=O` [Example 22, N-(2-(7-Ethyl-5-oxo-1-(2-oxo-2-((4-(trifluoromethyl)phenyl)amino)ethyl)-2-phenyl-1,5-dihydroimidazo[1,2-a]pyrimidin-6-yl)phenyl)acrylamide], the IC50 against WRN [1] lay in the range of 1 to 5 µM; against WRN [2], 0.5 to 1 µM.
For `C=CC(=O)Nc1ccccc1-c1c(CC)nc2n(CC(=O)Nc3ccc(C(F)(F)F)cc3)c(C)c(C3CC3)n2c1=O` [Example 14, N-(2-(3-Cyclopropyl-7-ethyl-2-methyl-5-oxo-1-(2-oxo-2-((4-(trifluoromethyl)phenyl)amino)ethyl)-1,5-dihydroimidazo[1,2-a]pyrimidin-6-yl)phenyl)acrylamide], in that order: less than 0.1 µM and less than 0.1 µM.
On to `C=CC(=O)Nc1ccccc1-c1c(CC)nc2n(CC(=O)Nc3ccc(C(F)(F)F)cc3Cl)c(C)cn2c1=O` [Example 2, N-(2-(1-(2-((2-Chloro-4-(trifluoromethyl)phenyl)amino)-2-oxoethyl)-7-ethyl-2-methyl-5-oxo-1,5-dihydroimidazo[1,2-a]pyrimidin-6-yl)phenyl)acrylamide], for which the IC50 against WRN [1] and at WRN [2] was less than 0.1 µM in each case.
Take `C=CC(=O)Nc1cc(C(=O)NC2CC2)ccc1-c1c(CC)nc2n(CC(=O)Nc3ccc(F)cc3)c(C)c(C)n2c1=O` [Example 24, 3-Acrylamido-N-cyclopropyl-4-(7-ethyl-1-(2-((4-fluorophenyl)amino)-2-oxoethyl)-2,3-dimethyl-5-oxo-1,5-dihydroimidazo[1,2-a]pyrimidin-6-yl)benzamide]: the IC50 against WRN [1] and against WRN [2] was less than 0.1 µM throughout.
Consider `C=CC(=O)Nc1cc(C(=O)NCC)ccc1-c1c(CC)nc2n(CC(=O)Nc3ccc(C(F)(F)F)cc3)c(C)c(C)n2c1=O` [Example 27, 3-Acrylamido-N-ethyl-4-(7-ethyl-2,3-dimethyl-5-oxo-1-(2-oxo-2-((4-(trifluoromethyl)phenyl)amino)ethyl)-1,5-dihydroimidazo[1,2-a]pyrimidin-6-yl)benzamide], for which the IC50 against WRN [1] and against WRN [2] was less than 0.1 µM throughout.
As for `C=CC(=O)Nc1cc(-c2cnn(C)c2)ccc1-c1c(CC)nc2n(CC(=O)Nc3ccc(C(F)(F)F)cc3)c(C)cn2c1=O` [Example 5, N-(2-(7-Ethyl-2-methyl-5-oxo-1-(2-oxo-2-((4-(trifluoromethyl)phenyl)amino)ethyl)-1,5-dihydroimidazo[1,2-a]pyrimidin-6-yl)-5-(1-methyl-1H-pyrazol-4-yl)phenyl)acrylamide], the half-maximal inhibitory concentration (IC50) on WRN [1] and against WRN [2] was less than 0.1 µM throughout.
On to `C=CC(=O)Nc1ccccc1-c1c(C)n(CC(=O)Nc2ccc(C(F)(F)F)cc2)c2nc(CC)c(-c3ccc(C(=O)NC)nc3)c(=O)n12` [Example 41, 5-(3-(2-Acrylamidophenyl)-7-ethyl-2-methyl-5-oxo-1-(2-oxo-2-((4-(trifluoromethyl)phenyl)amino)ethyl)-1,5-dihydroimidazo[1,2-a]pyrimidin-6-yl)-N-methylpicolinamide, trifluoroacetate salt], for which the IC50 on WRN [1] and against WRN [2] was less than 0.1 µM in each case.
With `C=CC(=O)Nc1ccccc1-c1c(CC)nc2n(CC(=O)Nc3ccc(C(F)(F)F)cc3)c(C)c(-c3cnn(C)c3)n2c1=O` [Example 16, N-(2-(7-Ethyl-2-methyl-3-(1-methyl-1H-pyrazol-4-yl)-5-oxo-1-(2-oxo-2-((4-(trifluoromethyl)phenyl)amino)ethyl)-1,5-dihydroimidazo[1,2-a]pyrimidin-6-yl)phenyl)acrylamide], the IC50 at WRN [1] and at WRN [2] was less than 0.1 µM each time.
With `C=CC(=O)Nc1cc(C(=O)NC2(CO)CC2)ccc1-c1c(CC)nc2n(CC(=O)Nc3ccc(C(F)(F)F)cc3)c(C)c(C)n2c1=O` [Example 34, 3-Acrylamido-4-(7-ethyl-2,3-dimethyl-5-oxo-1-(2-oxo-2-((4-(trifluoromethyl)phenyl)amino)ethyl)-1,5-dihydroimidazo[1,2-a]pyrimidin-6-yl)-N-(1-(hydroxymethyl)cyclopropyl)benzamide], the IC50 at WRN [1] and against WRN [2] was less than 0.1 µM in each case.
In the case of `C=CC(=O)Nc1cc(C(=O)NCC(F)F)ccc1-c1c(CC)nc2n(CC(=O)Nc3ccc(C(F)(F)F)cc3)c(C)cn2c1=O` [Example 11, 3-Acrylamido-N-(2,2-difluoroethyl)-4-(7-ethyl-2-methyl-5-oxo-1-(2-oxo-2-((4-(trifluoromethyl)phenyl)amino)ethyl)-1,5-dihydroimidazo[1,2-a]pyrimidin-6-yl)benzamide], the half-inhibitory concentration (IC50) at WRN [1] and against WRN [2] was less than 0.1 µM each time.
For `C=CC(=O)Nc1cc(C(=O)NC2CC2)ccc1-c1c(CC)nc2n(CC(=O)Nc3ccc(F)cc3Cl)c(C)c(C)n2c1=O` [Example 25, 3-Acrylamido-4-(1-(2-((2-chloro-4-fluorophenyl)amino)-2-oxoethyl)-7-ethyl-2,3-dimethyl-5-oxo-1,5-dihydroimidazo[1,2-a]pyrimidin-6-yl)-N-cyclopropylbenzamide], the IC50 at WRN [1] and against WRN [2] was less than 0.1 µM throughout.
As to `C=CC(=O)Nc1cc(C(=O)NC2(C)CC2)ccc1-c1c(CC)nc2n(CC(=O)Nc3ccc(C(F)(F)F)cc3)c(C)cn2c1=O` [Example 10, 3-Acrylamido-4-(7-ethyl-2-methyl-5-oxo-1-(2-oxo-2-((4-(trifluoromethyl)phenyl)amino)ethyl)-1,5-dihydroimidazo[1,2-a]pyrimidin-6-yl)-N-(1-methylcyclopropyl)benzamide], the IC50 against WRN [1] and against WRN [2] was less than 0.1 µM each time.
For `C=CC(=O)Nc1cc(C(=O)NC2CCC2)ccc1-c1c(CC)nc2n(CC(=O)Nc3ccc(C(F)(F)F)cc3)c(C)c(C)n2c1=O` [Example 29, 3-Acrylamido-N-cyclobutyl-4-(7-ethyl-2,3-dimethyl-5-oxo-1-(2-oxo-2-((4-(trifluoromethyl)phenyl)amino)ethyl)-1,5-dihydroimidazo[1,2-a]pyrimidin-6-yl)benzamide], the IC50 on WRN [1] and against WRN [2] was less than 0.1 µM each time.
For the compound `C#CCNC(=O)c1ccc(-c2c(CC)nc3n(CC(=O)Nc4ccc(C(F)(F)F)cc4)c(C)cn3c2=O)c(NC(=O)C=C)c1` [Example 12, 3-Acrylamido-4-(7-ethyl-2-methyl-5-oxo-1-(2-oxo-2-((4-(trifluoromethyl)phenyl)amino)ethyl)-1,5-dihydroimidazo[1,2-a]pyrimidin-6-yl)-N-(prop-2-yn-1-yl)benzamide], the IC50 at WRN [1] and against WRN [2] was less than 0.1 µM throughout.
